The experiment has as its target recombinant B-RAF enzyme (Homo sapiens (Human), UniProt P15056). The experiment is described as follows: In vitro B-RAF Kinase Assay (HTRF), IC50 determination. The experiment is classed as biochemical. Particulars: 6HIS-Mek1 substrate, 60 min at 23° C. How it is done: In vitro B-RAF Kinase Assay. To determine in vitro activities of recombinant B-RAF enzyme, a Homogeneous Time-Resolved Fluorescence (HTRF) assay was performed. […] Meanwhile, an Anti-6HIS-d2 antibody (Anti-6HIS-d2, Cisbio international) was added to detection system. When the two antibodies were close enough, energy, transfer was happened between Eu and d2, then activities of enzyme was determine by measuring fluorescence intensity (320 nm excitation, 665 nm emission).
IC50 determination. To evaluate in vitro potency of compounds against B-RAF enzyme, the IC50 values of compounds of this invention were determined. Compounds were 3-fold serially diluted with 100% DMSO from 1 mM, then 4 ml of compounds were transferred to 96 ml of reaction buffer (50 mM HEPES pH7.4, 10 mM MgCl2, 1 mM EGTA, 0.01% Tween-20, 0.005% BAS, 2 mM DTT). […] Then 2.5 ml of 4×ATP (2 mM) was added to the reaction system and initiated the reaction. The assay plate was incubated in an incubator for 60 min at 23° C., then the reaction was terminated by adding 5 ml of detection solution containing Eu3+ cryptate-labeled anti-phosphotyrosine PT66 antibody, and 5 ml of Anti-6HIS-d2 antibody. The plate was incubated for 1 h at 23° C. and the fluorescent signal was read with an EnVision multilable plate reader (PerkinElmer). IC50 values of compounds were generated using GraFit software (Version 6.0).

Sequence of recombinant B-RAF enzyme (P15056 whole entry, species assumed): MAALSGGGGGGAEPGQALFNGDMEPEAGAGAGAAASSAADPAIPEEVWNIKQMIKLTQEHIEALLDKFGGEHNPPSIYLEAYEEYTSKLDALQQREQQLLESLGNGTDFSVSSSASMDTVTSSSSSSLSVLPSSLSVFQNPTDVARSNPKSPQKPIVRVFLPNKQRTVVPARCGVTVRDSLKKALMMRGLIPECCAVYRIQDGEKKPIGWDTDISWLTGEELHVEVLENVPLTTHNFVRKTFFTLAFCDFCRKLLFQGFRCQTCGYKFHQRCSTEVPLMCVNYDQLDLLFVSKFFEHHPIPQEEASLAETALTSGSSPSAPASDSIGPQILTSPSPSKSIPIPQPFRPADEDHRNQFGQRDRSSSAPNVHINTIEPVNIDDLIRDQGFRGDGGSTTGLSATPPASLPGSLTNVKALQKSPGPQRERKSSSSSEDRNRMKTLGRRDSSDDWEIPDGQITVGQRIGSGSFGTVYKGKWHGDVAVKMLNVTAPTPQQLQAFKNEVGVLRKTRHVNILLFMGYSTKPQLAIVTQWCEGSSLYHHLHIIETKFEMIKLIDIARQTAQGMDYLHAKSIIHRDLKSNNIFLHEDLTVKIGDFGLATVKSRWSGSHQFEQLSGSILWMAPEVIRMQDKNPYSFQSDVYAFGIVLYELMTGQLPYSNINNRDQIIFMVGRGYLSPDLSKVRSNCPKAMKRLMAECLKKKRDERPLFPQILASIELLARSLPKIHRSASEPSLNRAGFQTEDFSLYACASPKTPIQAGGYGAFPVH

For the compound `CCCS(=O)(=O)Nc1ccc(F)c(Nc2ncccc2-c2ncnc3[nH]cnc23)c1F` [Example 1, N-(3-(3-(9H-purin-6-yl)pyridin-2-ylamino)-2,4-difluorophenyl)propane-1-sulfonamide], the IC50 is less than 100 nM.
In the case of `CCCS(=O)(=O)Nc1ccc(F)c(Nc2ncccc2-c2ncnc3[nH]c(C)nc23)c1F` [Example 3, N-(2,4-difluoro-3-(3-(8-methyl-9H-purin-6-yl)pyridin-2-ylamino)phenyl)propane-1-sulfonamide], the IC50 was less than 500 nM.
For the compound `CCCS(=O)(=O)Nc1ccc(F)c(Nc2ncccc2-c2ncnc3[nH]cnc23)c1` [Example 4, N-(3-(3-(9H-purin-6-yl)pyridin-2-ylamino)-4-fluorophenyl)propane-1-sulfonamide], the IC50 was less than 100 nM.
Consider `CCCS(=O)(=O)Nc1ccc(Cl)c(Nc2ncccc2-c2ncnc3[nH]cnc23)c1` [Example 5, N-(3-(3-(9H-purin-6-yl)pyridin-2-ylamino)-4-chlorophenyl)propane-1-sulfonamide], for which the IC50 was less than 100 nM.
The value for `CCCS(=O)(=O)Nc1ccc(C)c(Nc2ncccc2-c2ncnc3[nH]cnc23)c1` [Example 6, N-(3-(3-(9H-purin-6-yl)pyridin-2-ylamino)-4-methylphenyl)propane-1-sulfonamide] was less than 100 nM; that for `CCCS(=O)(=O)Nc1ccc(Cl)c(Nc2ncccc2-c2ncnc3[nH]cnc23)c1F` [Example 7, N-(3-(3-(9H-purin-6-yl)pyridin-2-ylamino)-4-chloro-2-fluorophenyl)propane-1-sulfonamide] was less than 100 nM; that for `CCCS(=O)(=O)Nc1ccc(F)c(Nc2ncccc2-c2ncnc3[nH]cnc23)c1Cl` [Example 8, N-(3-(3-(9H-purin-6-yl)pyridin-2-ylamino)-2-chloro-4-fluorophenyl)propane-1-sulfonamide] was less than 100 nM.
Turning to `O=S(=O)(CCCF)Nc1ccc(Cl)c(Nc2ncccc2-c2ncnc3[nH]cnc23)c1F` [Example 9, N-(3-(3-(9H-purin-6-yl)pyridin-2-ylamino)-4-chloro-2-fluorophenyl)-3-fluoropropane-1-sulfonamide], the IC50 was less than 100 nM.
Take `O=S(=O)(CCCF)Nc1ccc(F)c(Nc2ncccc2-c2ncnc3[nH]cnc23)c1F` [Example 10, N-(3-(3-(9H-purin-6-yl)pyridin-2-ylamino)-2,4-difluorophenyl)-3-fluoropropane-1-sulfonamide]: the IC50 is less than 100 nM.
On to `O=S(=O)(CCl)Nc1ccc(F)c(Nc2ncccc2-c2ncnc3[nH]cnc23)c1F` [Example 11, N-(3-(3-(9H-purin-6-yl)pyridin-2-ylamino)-2,4-difluorophenyl)-1-chloromethanesulfonamide], for which the IC50 is less than 500 nM.
In the case of `CCS(=O)(=O)Nc1ccc(F)c(Nc2ncccc2-c2ncnc3[nH]cnc23)c1F` [Example 12, N-(3-(3-(9H-purin-6-yl)pyridin-2-ylamino)-2,4-difluorophenyl)ethanesulfonamide], the IC50 was less than 1000 nM.
Regarding `CS(=O)(=O)Nc1ccc(F)c(Nc2ncccc2-c2ncnc3[nH]cnc23)c1F` [Example 13, N-(3-(3-(9H-purin-6-yl)pyridin-2-ylamino)-2,4-difluorophenyl)methanesulfonamide], the IC50 was less than 500 nM.
On to `O=S(=O)(Nc1ccc(F)c(Nc2ncccc2-c2ncnc3[nH]cnc23)c1F)c1ccc(F)c(F)c1` [Example 14, N-(3-(3-(9H-purin-6-yl)pyridin-2-ylamino)-2,4-difluorophenyl)-3,4-difluorobenzenesulfonamide], for which the IC50 was less than 500 nM.
For the compound `O=S(=O)(Nc1ccc(F)c(Nc2ncccc2-c2ncnc3[nH]cnc23)c1F)c1ccccc1` [Example 15, N-(3-(3-(9H-purin-6-yl)pyridin-2-ylamino)-2,4-difluorophenyl)benzenesulfonamide], the IC50 is less than 100 nM.
For the compound `O=S(=O)(Nc1ccc(F)c(Nc2ncccc2-c2ncnc3[nH]cnc23)c1F)c1ccc(Cl)cc1` [Example 17, N-(3-(3-(9H-purin-6-yl)pyridin-2-ylamino)-2,4-difluorophenyl)-4-chlorobenzenesulfonamide], the IC50 was less than 500 nM.
Regarding `O=S(=O)(CCC(F)(F)F)Nc1ccc(F)c(Nc2ncccc2-c2ncnc3[nH]cnc23)c1F` [Example 18, N-(3-(3-(9H-purin-6-yl)pyridin-2-ylamino)-2,4-difluorophenyl)-3,3,3-trifluoropropane-1-sulfon amide], the IC50 is less than 100 nM.
Consider `O=S(=O)(CC(F)(F)F)Nc1ccc(F)c(Nc2ncccc2-c2ncnc3[nH]cnc23)c1F` [Example 19, N-(3-(3-(9H-purin-6-yl)pyridin-2-ylamino)-2,4-difluorophenyl)-2,2,2-trifluoromethanesulfonamide], for which the IC50 is less than 100 nM.
Turning to `C=CS(=O)(=O)Nc1ccc(F)c(Nc2ncccc2-c2ncnc3[nH]cnc23)c1F` [Example 20, N-(3-(3-(9H-purin-6-yl)pyridin-2-ylamino)-2,4-difluorophenyl)ethenesulfonamide], the IC50 was less than 500 nM.
The value for `O=S(=O)(Nc1ccc(F)c(Nc2ncccc2-c2ncnc3[nH]cnc23)c1F)C1CC1c1ccccc1` (centres unmarked) [Example 21, N-(3-(3-(9H-purin-6-yl)pyridin-2-ylamino)-2,4-difluorophenyl)-2-phenylcyclopropane-1-sulfonamide] was less than 500 nM.
In the case of `COc1ccc(C2CC2S(=O)(=O)Nc2ccc(F)c(Nc3ncccc3-c3ncnc4[nH]cnc34)c2F)cc1` (centres unmarked) [Example 22, N-(3-(3-(9H-purin-6-yl)pyridin-2-ylamino)-2,4-difluorophenyl)-2-(4-methoxyphenyl)cyclopropane-1-sulfonamide], the concentration for half-maximal inhibition (IC50) is less than 1000 nM.
With `O=S(=O)(Nc1ccc(F)c(Nc2ncccc2-c2ncnc3[nH]cnc23)c1F)c1ccc(F)cc1` [Example 23, N-(3-(3-(9H-purin-6-yl)pyridin-2-ylamino)-2,4-difluorophenyl)-4-fluorobenzenesulfonamide], the IC50 was less than 1000 nM.
Consider `O=S(=O)(Nc1ccc(F)c(Nc2ncccc2-c2ncnc3[nH]cnc23)c1F)c1ccsc1` [Example 24, N-(3-(3-(9H-purin-6-yl)pyridin-2-ylamino)-2,4-difluorophenyl)thiophene-3-sulfonamide], for which the IC50 was less than 100 nM.
For `CCCS(=O)(=O)Nc1ccc(F)c(Nc2ncccc2-c2ncnc3[nH]ncc23)c1F` [Example 25, N-(3-(3-(1H-pyrazolo[3,4-d]pyrimidin-4-yl)pyridin-2-ylamino)-2,4-difluorophenyl)propane-1-sulfonamide], the IC50 was less than 500 nM.
Regarding `CCCS(=O)(=O)Nc1ccc(F)c(Nc2ncccc2-c2ncnc3[nH]ccc23)c1F` [Example 26, N-(3-(3-(7H-pyrrolo[2,3-d]pyrimidin-4-yl)pyridin-2-ylamino)-2,4-difluorophenyl)propane-1-sulfonamide], the IC50 was less than 500 nM.
The value for `CCCS(=O)(=O)Nc1ccc(C)c(Nc2ccccc2-c2ncnc3[nH]cnc23)c1` [Example 27, N-(3-(2-(9H-purin-6-yl)phenylamino)-4-methylphenyl)propane-1-sulfonamide] was less than 100 nM; that for `CCCS(=O)(=O)Nc1ccc(F)c(Nc2ccccc2-c2ncnc3[nH]cnc23)c1F` [Example 28, N-(3-(2-(9H-purin-6-yl)phenylamino)-2,4-difluorophenyl)propane-1-sulfonamide] was less than 1000 nM.

The values are drawn from patent US9550781B2, “Kinase modulating compounds, compositions containing the same and use thereof” (CENTAURUS BIOPHARMA CO., LTD., priority 2011, dated 2017).
